# Test results as given in publication PMC10110893, “[…]-derived synthetic cannabinoids inhibit T-type calcium channels with divergent effects on seizures in rodent models of epilepsy” (Frontiers in Physiology, 2023).
# Tests used:
# [1] = target: T1, human Cav3.1 (Homo sapiens, UniProt O43497); test: FLIPR calcium flux assay, Cav3.1; type: cell-based
# T1 construct: expressed in transfected cells; host or cells: HEK293 FlpIn T-Rex cells (Invitrogen)
# Method: (§1) HEK293 FlpIn T-Rex cells (Invitrogen, CA, United States) stably expressing human Cav3.1, Cav3.2, or Cav3.3 were maintained in Dulbecco’s Modified Eagle Medium (DMEM) supplemented with 10% foetal bovine serum (FBS), 1% penicillin-streptomycin (P/S) at 37°C, and 5% CO2 as previously described ([Bladen et al., 2021]; [Udoh et al., 2022]). Hygromycin (80 μg/mL) and blasticidin (15 μg/mL) were used as selection antibiotics and cells were passaged at 80% confluency. For experiments, cells were resuspended in Leibovitz’s L-15 media (containing 1% FBS, 1% P/S, 15 mM glucose, 2 μg/mL tetracycline), plated in black, clear-bottomed poly-D-lysine-coated 96-well plates (90 μL) (Corning, NY, United States), and incubated overnight in ambient air at 37°C. All compounds tested in cellular assays were prepared as stock solutions in DMSO and final DMSO concentration was 0.1%.
# (§2) Intracellular calcium flux was measured using a fluorometric imaging plate-reader (FLIPR) Calcium 5 Assay Kit and FlexStation 3 Microplate Reader (Molecular Devices, San Jose, United States). Calcium 5 dye (90 μL) prepared in low potassium HBSS (Thermo Fisher Scientific) containing (in mM) 145 NaCl, 22 HEPES, 0.338 Na2HPO4, 4.17 NaHCO3, 0.441 KH2PO4, 0.407 MgSO4, 0.493 MgCl2, 1.26 CaCl2, 5.56 glucose, and […] with pH 7.4 was applied to each well and incubated for 1 h at 37°C, ambient air prior to testing.
# (§3) Fluorescence readings were taken at 2 s intervals (λ excitation = 485 nm, λ emission = 525 nm). Following 2 min baseline reading, 20 μL of SB2193, SB2193F, or NNC 55-0396 (10 nM—10 μM) was added to cells and read for 5 min, then CaCl2 (10 mM) was added and read for 3 min. Baseline fluorescence averaged over the 20 s interval preceding CaCl2 addition was subtracted and normalized to the vehicle response. Changes in fluorescence were measured in relative fluorescence units (RFU). All compounds were assayed in ≥ five independent experiments (n = 5–8) performed in duplicate. Order of compound addition and location on the plate were varied between replicates. Data was fit to a four-parameter non-linear dose-response curve using GraphPad Prism 8.2.0 software (La Jolla, United States) to determine IC50 values.
# [2] = target: T2, human Cav3.3 (Homo sapiens, UniProt Q9P0X4); test: FLIPR calcium flux assay, Cav3.3; type: cell-based
# T2 construct: expressed in transfected cells; host or cells: HEK293 FlpIn T-Rex cells (Invitrogen)
# T2 sequence (Q9P0X4 whole entry): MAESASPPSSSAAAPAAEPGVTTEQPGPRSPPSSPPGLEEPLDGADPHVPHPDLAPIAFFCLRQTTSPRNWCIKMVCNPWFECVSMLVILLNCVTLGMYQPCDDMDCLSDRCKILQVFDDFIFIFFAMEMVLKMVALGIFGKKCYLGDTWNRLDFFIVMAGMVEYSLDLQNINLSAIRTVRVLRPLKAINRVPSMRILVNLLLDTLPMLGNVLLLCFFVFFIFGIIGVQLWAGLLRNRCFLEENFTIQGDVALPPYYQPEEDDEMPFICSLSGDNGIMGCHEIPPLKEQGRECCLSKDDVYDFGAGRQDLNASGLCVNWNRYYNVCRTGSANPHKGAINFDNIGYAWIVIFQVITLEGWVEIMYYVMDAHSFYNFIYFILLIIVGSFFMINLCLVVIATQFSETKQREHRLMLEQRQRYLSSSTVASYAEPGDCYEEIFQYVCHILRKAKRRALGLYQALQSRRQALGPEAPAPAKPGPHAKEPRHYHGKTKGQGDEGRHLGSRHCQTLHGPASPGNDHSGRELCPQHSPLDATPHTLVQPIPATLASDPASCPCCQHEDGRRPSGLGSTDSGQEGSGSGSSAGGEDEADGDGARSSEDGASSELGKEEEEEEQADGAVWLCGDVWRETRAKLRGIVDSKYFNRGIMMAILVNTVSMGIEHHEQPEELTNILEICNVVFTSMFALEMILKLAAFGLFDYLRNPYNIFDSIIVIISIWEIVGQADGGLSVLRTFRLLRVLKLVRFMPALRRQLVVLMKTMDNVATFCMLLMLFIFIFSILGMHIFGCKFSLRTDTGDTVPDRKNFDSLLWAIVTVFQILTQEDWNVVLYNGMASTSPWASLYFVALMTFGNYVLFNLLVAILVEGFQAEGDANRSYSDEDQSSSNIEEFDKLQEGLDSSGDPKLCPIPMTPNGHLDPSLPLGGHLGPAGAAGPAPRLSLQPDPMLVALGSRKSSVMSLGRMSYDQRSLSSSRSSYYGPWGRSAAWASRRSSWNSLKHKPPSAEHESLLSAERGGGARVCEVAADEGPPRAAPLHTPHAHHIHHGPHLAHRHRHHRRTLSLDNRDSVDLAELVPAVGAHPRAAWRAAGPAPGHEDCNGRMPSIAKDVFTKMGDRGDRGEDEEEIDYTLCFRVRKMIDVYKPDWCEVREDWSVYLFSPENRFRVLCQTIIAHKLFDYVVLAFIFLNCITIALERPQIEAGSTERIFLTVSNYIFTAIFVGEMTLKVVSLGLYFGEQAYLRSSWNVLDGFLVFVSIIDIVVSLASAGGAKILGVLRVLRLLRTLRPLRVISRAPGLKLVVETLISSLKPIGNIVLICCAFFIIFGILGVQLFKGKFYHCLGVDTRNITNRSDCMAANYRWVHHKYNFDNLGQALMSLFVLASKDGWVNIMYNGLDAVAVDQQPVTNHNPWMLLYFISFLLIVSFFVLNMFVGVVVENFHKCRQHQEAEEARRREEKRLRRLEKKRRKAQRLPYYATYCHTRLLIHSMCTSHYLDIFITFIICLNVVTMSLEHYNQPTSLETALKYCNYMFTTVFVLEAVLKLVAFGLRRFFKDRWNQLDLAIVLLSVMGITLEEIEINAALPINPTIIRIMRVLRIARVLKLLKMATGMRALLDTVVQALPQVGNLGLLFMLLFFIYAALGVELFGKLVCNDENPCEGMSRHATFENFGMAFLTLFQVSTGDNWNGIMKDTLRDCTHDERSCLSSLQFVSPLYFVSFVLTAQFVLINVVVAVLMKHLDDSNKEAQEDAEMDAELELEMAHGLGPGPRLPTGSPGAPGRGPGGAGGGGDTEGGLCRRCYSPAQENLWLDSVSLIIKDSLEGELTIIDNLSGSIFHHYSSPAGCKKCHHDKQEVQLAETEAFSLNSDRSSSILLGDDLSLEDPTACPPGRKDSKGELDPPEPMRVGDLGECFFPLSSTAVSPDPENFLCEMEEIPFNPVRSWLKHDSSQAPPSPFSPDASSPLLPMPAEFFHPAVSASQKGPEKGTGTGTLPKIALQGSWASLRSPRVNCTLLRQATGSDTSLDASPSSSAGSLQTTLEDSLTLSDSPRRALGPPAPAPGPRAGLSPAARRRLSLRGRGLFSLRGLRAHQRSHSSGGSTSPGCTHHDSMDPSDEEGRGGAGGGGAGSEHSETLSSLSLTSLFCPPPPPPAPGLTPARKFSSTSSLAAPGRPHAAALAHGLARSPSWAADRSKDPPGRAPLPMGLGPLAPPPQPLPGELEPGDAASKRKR
# Method: as §1, §2, §3
# [3] = tested on: 6 Hz-induced seizures in Swiss mice; test: 6 Hz seizure model in mice; type: in vivo, mouse
# Method: Swiss outbred mice used in 6 Hz seizure experiments were purchased from Australian Resources Centre (stock ARC(S); Canning Vale, Australia) and single housed for 1 week prior to experimentation to prevent fighting.
# 6 Hz seizures were induced in Swiss male mice (9–10 weeks old) using an Ugo Basile electroconvulsive therapy unit (Model 57,800; Gemonio, Italy). Mice were pre-treated with vehicle, SB2193 (10 mg/kg, 30 mg/kg, 100 mg/kg) or valproic acid (300 mg/kg) via i.p. injection 15 min before seizure induction based on the time-to-peak brain concentration determined in pharmacokinetic studies. […] A drop of 0.5% tetracaine was applied to both corneas immediately following the i.p. injection to provide local anaesthesia. Immediately prior to the electrical stimulation, saline was applied to each cornea to ensure electrical conductivity. Corneal electroshocks were administered at 44 mA, 6 Hz, 3 s shock duration, with a […] rectangular pulse width. Mice were shocked and scored by an observer blinded to treatment for the presence of twitching of the vibrissae, stun, myoclonus, rearing, forelimb clonus, and/or Straub tail. […] The ED50 for SB2193 was calculated using computer-assisted log-probit linear regression analysis ([Litchfield and Wilcoxon, 1949]). A χ^2 test was performed to assess statistical significance.
# T1 sequence (O43497 whole entry): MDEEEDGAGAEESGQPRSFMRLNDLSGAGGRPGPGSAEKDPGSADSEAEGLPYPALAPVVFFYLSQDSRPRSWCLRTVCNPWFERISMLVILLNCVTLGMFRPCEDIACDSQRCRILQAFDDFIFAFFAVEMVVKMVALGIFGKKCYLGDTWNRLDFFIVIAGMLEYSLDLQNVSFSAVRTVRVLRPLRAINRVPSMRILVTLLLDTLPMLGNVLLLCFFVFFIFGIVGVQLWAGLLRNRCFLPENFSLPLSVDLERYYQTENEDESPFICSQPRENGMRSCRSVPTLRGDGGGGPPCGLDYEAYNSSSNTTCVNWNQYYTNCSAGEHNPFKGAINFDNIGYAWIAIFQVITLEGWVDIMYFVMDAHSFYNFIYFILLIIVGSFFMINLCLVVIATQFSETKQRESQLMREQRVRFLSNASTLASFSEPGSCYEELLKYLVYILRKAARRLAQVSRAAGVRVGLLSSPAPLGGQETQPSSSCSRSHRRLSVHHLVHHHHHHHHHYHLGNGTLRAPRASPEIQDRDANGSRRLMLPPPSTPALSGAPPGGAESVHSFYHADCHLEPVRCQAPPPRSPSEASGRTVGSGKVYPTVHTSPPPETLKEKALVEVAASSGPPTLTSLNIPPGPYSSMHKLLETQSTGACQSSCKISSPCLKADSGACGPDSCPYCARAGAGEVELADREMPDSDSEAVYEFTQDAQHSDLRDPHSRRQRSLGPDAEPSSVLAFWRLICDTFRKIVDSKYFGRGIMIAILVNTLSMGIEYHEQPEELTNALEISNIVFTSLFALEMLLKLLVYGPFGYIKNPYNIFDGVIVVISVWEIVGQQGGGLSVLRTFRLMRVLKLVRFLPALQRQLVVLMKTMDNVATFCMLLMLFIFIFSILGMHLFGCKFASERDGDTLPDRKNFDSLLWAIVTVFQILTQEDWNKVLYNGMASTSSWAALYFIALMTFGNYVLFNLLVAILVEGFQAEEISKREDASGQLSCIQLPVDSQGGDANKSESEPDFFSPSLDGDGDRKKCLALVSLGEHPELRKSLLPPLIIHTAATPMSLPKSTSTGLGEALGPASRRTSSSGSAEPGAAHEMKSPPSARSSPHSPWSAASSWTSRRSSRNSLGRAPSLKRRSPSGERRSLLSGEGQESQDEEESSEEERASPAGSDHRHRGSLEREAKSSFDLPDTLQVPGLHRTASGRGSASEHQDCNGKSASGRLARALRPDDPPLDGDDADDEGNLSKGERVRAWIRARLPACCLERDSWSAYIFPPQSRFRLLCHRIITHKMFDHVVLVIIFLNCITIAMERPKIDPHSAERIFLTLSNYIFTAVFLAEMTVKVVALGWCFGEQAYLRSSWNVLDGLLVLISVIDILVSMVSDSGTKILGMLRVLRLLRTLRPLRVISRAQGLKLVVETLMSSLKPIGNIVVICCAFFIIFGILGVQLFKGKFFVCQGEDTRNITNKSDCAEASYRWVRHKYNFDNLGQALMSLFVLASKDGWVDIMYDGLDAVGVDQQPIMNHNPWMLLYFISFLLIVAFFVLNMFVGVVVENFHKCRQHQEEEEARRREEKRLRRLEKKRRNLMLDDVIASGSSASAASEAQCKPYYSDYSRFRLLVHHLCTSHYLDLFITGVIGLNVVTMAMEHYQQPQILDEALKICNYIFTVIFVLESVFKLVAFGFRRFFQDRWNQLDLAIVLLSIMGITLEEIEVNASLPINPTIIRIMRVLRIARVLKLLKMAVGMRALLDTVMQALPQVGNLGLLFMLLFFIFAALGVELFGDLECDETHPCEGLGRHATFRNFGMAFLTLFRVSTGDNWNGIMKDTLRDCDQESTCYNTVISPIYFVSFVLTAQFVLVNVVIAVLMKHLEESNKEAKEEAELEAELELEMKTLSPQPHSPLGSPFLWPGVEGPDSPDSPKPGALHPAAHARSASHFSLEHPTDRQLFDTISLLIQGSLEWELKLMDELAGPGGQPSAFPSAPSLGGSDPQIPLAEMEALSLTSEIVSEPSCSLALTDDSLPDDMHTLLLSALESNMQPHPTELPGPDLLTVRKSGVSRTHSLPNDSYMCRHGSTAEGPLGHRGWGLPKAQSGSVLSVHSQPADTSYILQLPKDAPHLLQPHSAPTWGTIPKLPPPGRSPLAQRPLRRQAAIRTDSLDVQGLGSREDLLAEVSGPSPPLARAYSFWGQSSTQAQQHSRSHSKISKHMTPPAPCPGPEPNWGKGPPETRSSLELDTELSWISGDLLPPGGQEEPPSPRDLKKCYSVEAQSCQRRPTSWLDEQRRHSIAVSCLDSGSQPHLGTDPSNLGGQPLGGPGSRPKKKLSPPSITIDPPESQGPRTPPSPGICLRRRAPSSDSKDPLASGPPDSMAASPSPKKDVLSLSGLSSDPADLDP
structure (smiles),measurement,setting,value
CCCCCn1cc(C(=O)N2CCN(C(=O)OC(C)(C)C)CC2)c2ccccc21 [SB2193],IC50,[1],0.75 µM
same,IC50,[2],5.4 µM
same,percentage of mice protected from seizures compared to vehicle,"[3]; 100 mg/kg i.p., 15 min before 6 Hz 44 mA stimulation, n = 10",significantly increased
same,ED50,"[3]; Mus musculus, ip, log-probit analysis, estimated",~120 mg/kg
